For series [1] the following is noted: in vivo; cited from earlier work.
Series [2] in a line: STZ rat Study #1: animal survival and clinical observations. Conditions: Group 5: 1.5 mg/kg over 24 h by pump, N 10, STZ rats, end of study. The series is classed as in vivo. On the procedure:
Male Sprague Dawley rats (Harlan Laboratories, Inc.; Indianapolis, Ind.) weighing approximately 400 g had type 1 diabetes induced on Day 1 by intravenous administration of clinical-grade STZ (Zanosar®; 50 mg/kg in Study #1 and 33 mg/kg in Study #2). On Day 3 (Study #1) or Day 4 (Study #2), blood was collected and K3EDTA plasma was analyzed for endogenous C-peptide levels and animals with C-peptide <0.4 nM were randomized on Day 7 (Study #1) or Day 9 (Study #2) taking into account body weight and blood glucose (criterion in the range 400-600 mg/dL). Randomization was done using Covance's BRAT system.
Insulin (Lantus®, long-acting insulin glargine) was used in both studies and administered subcutaneously in the evening before the start of the 12-hour dark cycle in the animal room (time period when most food consumption takes place). In Study #1, rats were initiated on insulin after there were a number of animal deaths starting early in the study (3 days into the treatment period). All animals were receiving 3 U/day of insulin by the end of the study. […] Additionally to limit dehydration when needed throughout the studies, warm sterile saline (volume determined by veterinarian) was administered to animals, and in particular in Study #2, to animals 24 hours prior to undergoing surgery for pump implantation. […]

The conditions of series [3]: in vivo.
For series [4] the following is noted: cited from earlier work.
The nature of the next series: clinical. Particulars: human, in vivo.
Series [5] can be described thus: Single-dose pharmacokinetic study of C-peptide in patients with type 1 diabetes. Conditions: human, in vivo; for Vd: 0.45 mg (150 nmol) i.v., mean ± SD.
Protocol: In a single-dose pharmacokinetic study of C-peptide in patients with type 1 diabetes, recombinant human C-peptide was administered subcutaneously at doses of 150 nmol, 600 nmol, 1800 nmol, and intravenously at a dose of 150 nmol with a wash-out period of at least three days.

These results are taken from patent publication US8962553B2, “Method of treating a diabetic subject having a microvascular impairment disorder by a pegylated C-peptide” (Cebix Ab, priority 2011, dated 2015).

Like-named read-outs stand apart in the source and are kept apart here.

Consider Glargine insulin, for which, in series [1], the duration of activity is 24 h and the “peak time of effect” value is given as “no peak effect”.
Regarding `CC(C)C[C@H](NC(=O)[C@H](C)NC(=O)[C@H](CC(C)C)NC(=O)[C@@H]1CCCN1C(=O)[C@H](CCC(N)=O)NC(=O)[C@H](CC(C)C)NC(=O)[C@H](CO)NC(=O)CNC(=O)[C@H](C)NC(=O)CNC(=O)[C@@H]1CCCN1C(=O)CNC(=O)CNC(=O)CNC(=O)[C@H](CC(C)C)NC(=O)[C@H](CCC(=O)O)NC(=O)[C@@H](NC(=O)[C@H](CCC(N)=O)NC(=O)CNC(=O)[C@@H](NC(=O)[C@H](CCC(N)=O)NC(=O)[C@H](CC(C)C)NC(=O)[C@H](CC(=O)O)NC(=O)[C@H](CCC(=O)O)NC(=O)[C@H](C)NC(=O)[C@@H](N)CCC(=O)O)C(C)C)C(C)C)C(=O)N[C@@H](CCC(=O)O)C(=O)NCC(=O)N[C@@H](CO)C(=O)N[C@@H](CC(C)C)C(=O)N[C@@H](CCC(N)=O)C(=O)O` [C-peptide], the “Number of Surviving Animals” value in series [2] is 1. In addition, the “dose required to obtain a plasma concentration of 1-3 nM” value in series [3] is 10.5 mg/week. Further, the “dose required to obtain a plasma concentration of 1-3 nM for most of the day” value in series [3] amounted to 1.5 mg/day. Also, the half-life in series [4] (healthy subjects, range of 24.9-45.3 minutes) is 0.558 h; in series [4] (subjects with type 1 diabetes, range of 39.4-48.5 minutes), 0.708 h; in “clinical” (iv, 0.45 mg), 1.13 h; in “clinical” (sc, 0.45 mg), 1.13 ± 0.35 h; in the series “clinical” (sc, 1.8 mg), 1.02 h; in the series “clinical” (sc, 5.4 mg), 1.13 h. In addition, the CL/F in the series “clinical” (sc, 0.45 mg) was 290 ± 67 mL/min; in the series “clinical” (sc, 1.8 mg), 270 ± 47 mL/min; in “clinical” (sc, 5.4 mg), 250 ± 41 mL/min. The Vd/F in “clinical” (sc, 0.45 mg) was determined as 28.3 ± 8.96 L; in “clinical” (sc, 1.8 mg) it was 23.4 ± 5.27 L; in the series “clinical” (sc, 5.4 mg), 24.4 ± 5.47 L. In addition, the Cmax came out at 30.8 ± 6.57 nM in series [5] (iv, 0.45 mg); 3.7 ± 1.04 nM in series [5] (sc, 0.45 mg); 14.3 ± 3.22 nM in series [5] (sc, 1.8 mg); 40.3 ± 7.03 nM in series [5] (sc, 5.4 mg). In addition, in series [5] (iv, 0.45 mg), the clearance was determined as 250 ± 46 mL/min. The Vd was determined as 10.9 ± 1.97 L in series [5] (iv, 0.45 mg, Vss) and 25.6 ± 7.65 L in series [5] (iv, 0.45 mg, Vz). The time of peak concentration (Tmax) is 0.833 h in series [5] (sc, 0.45 mg); 1.08 h in series [5] (sc, 1.8 mg); 1.22 h in series [5] (sc, 5.4 mg). For the same compound, the bioavailability in series [5] (sc, 0.45 mg) amounted to 86.9 ± 12.1%.
For the compound “Regular insulin: short-acting insulin preparation”, the onset of action in series [1] was 30 to 60 min.
